Results on one molecule are retold here after patent publication US6060481A, “Method for improving insulin sensitivity using an adenosine receptor antagonist” (priority 1999, dated 2000).

Holding throughout (format): in vivo, Zucker rats
The subject of one assay is insulin receptor kinase. The assay is described as follows: Insulin receptor kinase assay of partially purified receptors from gastrocnemius of treated rats. As for the experimental part:
BWA1433 was administered as previously described, in a suspension of 7 mg/ml methyl cellulose containing 10 mg/ml BWA1433. BWA1433 was supplied as a free acid from Glaxo-Wellcome but was adjusted to pH 8.0 with NaOH prior to use. In this way, treated animals were given 12 mg/kg BWA1433 every 12 hours (±1 hour) for one week.
Insulin receptors were prepared from 100 mg frozen powdered skeletal muscle using lectin affinity chromatography, as taught by Caro, J. Clin. Invest., 79:1330-1337 (1987). Supernatants from detergent (Triton X-100) solubilized muscle were cycled over 0.3 ml bed volume wheat germ agglutinin agarose (WGA) columns, after which the columns were washed thoroughly overnight. The receptors were eluted in one ml of buffer containing 25 mM N-[2-hydroxyethyl]piperazine-N'-[2-ethanesulfonic acid] (HEPES) (pH 7.6), 55 mM NaCl, 11.25 mM KCI, 0.5 mM CaCl2, 0.5 mM MgCl2, 0.5 mM Na3 VO4, 5 mM NaF, 10% glycerol, 0.05% Triton X-100, and 300 mM-acetyl-D-glucosamine. WGA column eluates were aliquoted to avoid multiple freezing/thawing and were stored at -70° C. until use. Columns were thoroughly washed (50-100 bed volumes wash buffer) and reused. Receptors were quantitated by assaying protein and immunoblotting to specifically assess insulin receptor protein.
Insulin receptor kinase activity was determined using a modification of previously published techniques by Debant, et al., Am. […] Papers were blotted, oven-dried, and radioactivity determined by scintillation counting using a Beckman Model LS3801 scintillation counter. Activity was calculated in mUnits receptor kinase/mg of WGA eluate protein. […]
Insulin receptor kinase activity was measured 1) in the basal state in non-insulin-injected animals, 2) in insulin-injected animals without added insulin, and 3) in receptors isolated from insulin injected animals but stimulated in vitro with 1 μM exogenous insulin. […] Intravenous insulin-injection increased the observed activity of the insulin receptor kinase 7- to 12-fold when measured in the absence of insulin added in vitro (FIG. 4A). […]

Assay [1] relates to protein tyrosine phosphatase. The assay can be described thus: Protein tyrosine phosphatase assay of gastrocnemius fractions and insulin receptor preparations of treated rats.
Protocol: Approximately 100 mg frozen tissue were homogenized in 5 ml buffer containing 10 mM NaHCO3, (pH 7.4), 250 mM sucrose, 0.1 mg/ml aprotinin, 0.05 mg/ml leupeptin, 1 mM phenylmethysulfonyl fluoride (PMSF), and 5 mM NaN3 (CHB buffer) and then sonicated for 1 min on ice with three 20-sec bursts. The sonicate was centrifuged at 1,200 g for 10 min at 4° C. Three ml of CHB medium was added to the pellet which was then rehomogenized for 1 min and respun. The suspensions of the two pellets were combined, rehomogenized, and respun at 10,000 g for 10 minutes at 4° C. The 10,000 g pellet was discarded and the supernatant was transferred to a cold Ti75 ultracentrifuge tube and spun at 270,000 g for 90 minutes. The supernatant of the high speed centrifugation (cytosol) was used for PTPase assays. The 270,000 g pellet was resuspended in 0.500 ml buffer containing 250 mM sucrose, 20 mM HEPES (pH 7.4), 0.6 M KC1, and 1% Triton X-100. A 27 gauge syringe needle was used to completely solubilize the pellet. The supernatant was spun at 12,000 rpm for 20 min and the resulting supernatant, termed particulate fraction was then dialyzed overnight at 4° C. against 20 mM HEPES (pH 7.2) and 0.1% β-mercaptoethanol. Samples were stored at -70° C. until used for PTPase assays.
Each tube contained 10 μl [^32 P]tyrosine-phosphorylated myelin basic protein (1×10^4 dpm; 2×10^3 dpm/pmol), 10 μl 5X PTP-ase buffer [250 mM HEPES (pH 7.0), 10 mM EDTA, 5 mM DTT], and 1-5 μg muscle fraction protein and water in a total volume of 40 μl. Consumption of substrate (phosphorylated myelin basic protein) was limited to 20%.
One unit of PTPase activity is defined as the amount of enzyme releasing 1 nmol phosphate/min from myelin basic protein.
PTPase was measured in skeletal muscle cytosolic fractions, particulate fractions, and in partially purified insulin receptors. To assay PTPase activity in partially purified insulin receptors the WGA eluates were dialyzed overnight against 0.1% β-mercaptoethanol and 20 mM HEPES, pH 7.2, to eliminate phosphatase inhibitors.
Assay [2] relates to whole body glucose uptake. The assay is described as follows: Euglycemic hyperinsulinemic clamp, whole body glucose disposal and IMGU. Here is the method:
In this example, 6-8 week old lean and obese female animals were used. Each group received either vehicle or vehicle plus 1,3-dipropyl-8-(p-acrylic)phenylxanthine (BWA1433) (12 mg/kg every 12 h) for one week prior to the start of the experimental protocol, as described by Xu, et al., Am. J. Physiol., 274 (Endocrinol. Metab. 37): E271-E279 (1988). The vehicle in this case was 10 mg/ml methyl cellulose in H2 O. The final dose of BWA1433 or vehicle was administered approximately 1 h prior to the start of the experimental protocol.
After samples were obtained for basal metabolic determinations, a euglycemic hyperinsulinemic clamp was performed. Regular human insulin (Eli Lilly, Indianapolis, Ind.) was infused intravenously at a rate of 100 mU·min^-1 ·kg^-1 for 3 h. This infusion rate has been previously determined to result in steady-state plasma insulin concentrations of approximately 5,000 uU/ml, as reported in Lang, et al., Endocrinology, 130:43-52 (1996); Lang, Am. J. Physiol., 263 (Endocrinol. Metab. 26): E703-E711 (1992); and Lang, et al., Metabolism, 39:1096-1107 (1990). […] Tritiated glucose was not infused during the hyperinsulinemic clamp, because preliminary studies indicate that this insulin infusion rate completely suppresses endogenous glucose appearance in both obese and lean animals.
During the hyperinsulinemic clamp, blood glucose concentrations were determined at 10-min intervals using the YSI glucose analyzer (Yellow Springs, Ohio). Glucose specific activity was determined on neutralized supernatants of deproteinized plasma as taught by Lang, Am. J. Physiol, 263 (Endocrinol. Metab. 26): E703-D711 (1992). Tissue samples (600-900 mg wet wt) were immersed in ice-cold 0.5 N PCA, homogenized, and centrifuged. The concentration of phosphorylated 2-DG in tissues was calculated as the difference between total ^14 C-radioactivity of the neutral extract and the ^14 C-radioactivity remaining after Somogyi treatment as described in detail by Lang CH, Dobrescu C, and Meszaros K., Metabolism 39:1096-1107 (1990).
Rates of whole body glucose appearance (Ra) and disappearance (Rd) are calculated using the steady-state equations of Steele, Ann. NY Acad. Sci., 82:420-430 (1959). The glucose metabolic clearance rate (MCR) is calculated by dividing the glucose Rd by the prevailing glucose concentration. Since the prevailing insulin levels during the hyperinsulinemic clamp completely suppress endogenous glucose production, the rate of whole body glucose disposal equals the exogenous glucose infusion rate. The increment in insulin-stimulated glucose uptake (IMGU) for each animals is calculated by subtracting the basal endogenous glucose Ra from the measured rate of glucose disposal determined during the last 40 min of the clamp. In vivo glucose uptake for each tissue examined is calculated based on the accumulation of phosphorylated 2-DG by a respective tissue, the integrated 2-DG:glucose ratio in the plasma during the 40-min labeling period, and the lumped constant as described by Lang, Endocrinology, 128:645-653 (1991).

As for `CCCn1c(=O)c2[nH]c(-c3ccc(C=CC(=O)O)cc3)nc2n(CCC)c1=O` [BWA1433, 1,3-dipropyl-8-(p-acrylic)phenylxanthine], the “Insulin receptor kinase activity” value is listed as “no significant influence” with insulin receptor kinase (lean rats, insulin in vivo plus 1 μM insulin in vitro); “small but significant increase” with insulin receptor kinase (obese animals, insulin injected in vivo, no insulin added in vitro); “increased” in the assay with insulin receptor kinase (obese rats, insulin in vivo plus 1 μM insulin in vitro). Further, the “Phosphatase activity in cytosolic fractions of gastrocnemius” value in assay [1] (between groups (lean, obese, ± treatment)) was “No differences”. For the same molecule, the “PTPase activity in particulate fraction of gastrocnemius” value in assay [1] (obese Zucker rats) was “reduction”. The “Reduction of phosphatase activity in partially-purified insulin receptor preparations compared to untreated controls” value in assay [1] (obese rats) stood at 27%. Further, the “Change in IMGU” value in assay [2] (lean Zucker rats) is “No change”. In addition, in assay [2] (lean animals, hyperinsulinemic clamp), the “Decrease in whole body glucose disposal” value is 16%. For the same molecule, the “Average plasma glucose concentration during final hour of clamp” value in assay [2] (lean rats) turned out to be 5.4 ± 0.1 mM; in assay [2] (obese rats), 5.5 ± 0.1 mM. Besides, the “Increase in IMGU compared to vehicle-treated obese animals” value in assay [2] (obese rats) was “more than 6 fold”. The “Increase in rate of whole body glucose uptake compared to untreated obese rats” value in assay [2] (obese rats, hyperinsulinemic clamp) turned out to be 88%. Also, the “Whole body glucose uptake rate lower than in lean control animals” value in assay [2] (treated obese animals versus lean control) is “approximately 50%”.
